Measurements from ChEMBL document CHEMBL3351469, “Structure-activity relationships (SAR) and structure-kinetic relationships (SKR) of bicyclic heteroaromatic acetic acids as potent CRTh2 antagonists III: the role of a hydrogen-bond acceptor in long receptor residence times” (Bioorg Med Chem Lett, 2014).

Assays:
[1] = biological target: T1, Prostaglandin D2 receptor 2 (Homo sapiens) (UniProt Q9Y5Y4); details: CHO.K1
T1 sequence (whole entry): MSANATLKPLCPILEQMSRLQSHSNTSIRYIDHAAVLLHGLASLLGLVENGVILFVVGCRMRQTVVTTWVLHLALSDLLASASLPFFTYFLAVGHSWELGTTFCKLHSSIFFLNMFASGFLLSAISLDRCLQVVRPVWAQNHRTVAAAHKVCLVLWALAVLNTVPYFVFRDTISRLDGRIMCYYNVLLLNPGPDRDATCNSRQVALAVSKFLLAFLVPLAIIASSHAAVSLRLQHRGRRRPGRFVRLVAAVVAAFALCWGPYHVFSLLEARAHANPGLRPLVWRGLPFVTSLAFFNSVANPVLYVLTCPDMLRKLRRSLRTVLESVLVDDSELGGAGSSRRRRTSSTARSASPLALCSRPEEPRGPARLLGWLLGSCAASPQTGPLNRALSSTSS
Description: Antagonist activity at CRTh2 (unknown origin) stably expressed in PGD2-stimulated CHO.K1 cells assessed as dissociation half-life at 10 times IC50 after 1 hr preincubation by radio-labelled [35S]-GTPgammaS binding assay

[2] = biological target: T2, Prostaglandin D2 receptor 2 (Homo sapiens, UniProt Q9Y5Y4); test: Antagonist activity at CRTh2 (unknown origin) stably expressed in PGD2-stimulated CHO.K1 cells preincubated for 1 hr by radio-labelled [35S]-GTPgammaS binding assay; assay type: functional, cell-based
T2 sequence (Q9Y5Y4 whole entry): T1 sequence (whole entry)

[3] = biological target: T1, Prostaglandin D2 receptor 2 (Homo sapiens); test: Antagonist activity at CRTh2 (unknown origin) stably expressed in PGD2-stimulated CHO.K1 cells assessed as dissociation half-life at 10 times IC50 after 1 hr preincubation measured at 28 hrs after washout by radio-labelled [35S]-GTPgammaS binding assay; assay type: functional, cell-based

SMILES	T1/2 [1] [h]	IC50 ([2]; read-out: IC50) [nM]	IC50 ([2]; cho.k1)	T1/2 [3] [h]
Cc1ccc2c(CC(=O)O)cn(-c3ccc(F)cc3Cc3c(C)noc3C)c2n1	3	2	–	–
Cc1ccc2c(CC(=O)O)cn(-c3ccc(Cl)cc3Cn3c(C)nnc3C3CC3)c2n1	20	56	–	–
Cc1ccc2c(CC(=O)O)cn(-c3ccc(F)cc3Cc3c(C)cnn3C)c2n1	1.2	10	–	–
Cc1ccc2c(CC(=O)O)cn(-c3ccccc3Cn3ccnn3)c2n1	–	1800	–	–
Cc1ccc2c(CC(=O)O)cn(-c3ccc(Cl)cc3Cc3c(C4CC4)noc3C3CC3)c2n1	22	6	–	–
Cc1ccc2c(CC(=O)O)cc(-c3ccc(C(F)(F)F)cc3Cc3c(C)noc3C3CC3)n2n1	14	3	–	–
Cc1ccc2c(CC(=O)O)cn(-c3ccccc3Cn3nc(C)nc3C)c2n1	–	–	Not Active	–
Cc1nnc(C2CC2)n1Cc1cc(C(F)(F)F)ccc1-c1cn(CC(=O)O)c2ccc(F)cc12	20	6	–	–
CCN(Cc1cc(C(F)(F)F)ccc1-c1cc(CC(=O)O)ccc1OC)C(=O)C1CC1	2	14	–	–
Cc1cn(Cc2ccccc2-n2cc(CC(=O)O)c3ccc(C)nc32)c(C)n1	–	–	Not Active	–
Cc1ccc(-n2cc(CC(=O)O)c3ccc(C)nc32)c(Cc2c(C)cnn2CC2CC2)c1	10	4	–	–
Cc1ccc2c(CC(=O)O)cn(-c3ccc(C(F)(F)F)cc3Cc3c(C4CC4)noc3C3CC3)c2n1	23	3	–	–
Cc1ccc2c(CC(=O)O)cn(-c3ccc(F)cc3Cc3c(C)noc3C3CC3)c2n1	6	2	–	–
Cc1ccc(-n2cc(CC(=O)O)c3ccc(C)nc32)c(Cn2c(C)nnc2C)c1	9	16	–	–
Cc1ccc2c(CC(=O)O)cn(-c3ccc(Cl)cc3Cc3c(C)noc3Cc3ccccc3)c2n1	–	3	–	45
Cc1ccc2c(CC(=O)O)cn(-c3ccc(Cl)cc3Cn3c(C)nnc3CCc3ccccc3)c2n1	26	9	–	–
Cc1ccc(-n2cc(CC(=O)O)c3ccc(C)nc32)c(Cn2nncc2C)c1	–	150	–	–
CCN(Cc1cc(C(F)(F)F)ccc1-n1cc(CC(=O)O)c2ccc(C)nc21)C(C)=O	6	10	–	–
Cc1c(-c2cccc3c2CCN(S(C)(=O)=O)C3)c2cc(F)ccc2n1CC(=O)O	1.7	4	–	–
Cc1noc(C2CC2)c1Cc1cc(C(F)(F)F)ccc1-c1cn(CC(=O)O)c2ccc(F)cc12	8	37	–	–
Cc1cnn(C)c1Cc1cc(C(F)(F)F)ccc1-c1cn(CC(=O)O)c2ccc(F)cc12	2.5	64	–	–

Results, then the compound that gave them:

T1/2 [1] [h]	IC50 ([2]; read-out: IC50) [nM]	IC50 ([2]; cho.k1)	T1/2 [3] [h]	SMILES
18	6	–	–	Cc1noc(C)c1-c1cccc(-c2c(C)n(CC(=O)O)c3ccc(F)cc23)c1
27	37	–	–	Cc1noc(C2CC2)c1Cc1cc(F)ccc1-c1cn(CC(=O)O)c2ccc(C(F)(F)F)cc12
11	8	–	–	CCN(Cc1cc(C(=O)NCCc2ccccc2)ccc1-n1cc(CC(=O)O)c2ccc(C)nc21)C(=O)C1CC1
25	23	–	–	Cc1noc(C2CC2)c1Cc1cc(C(F)(F)F)ccc1-c1cn(CC(=O)O)c2ccc(C(F)(F)F)nc12
–	–	Not Active	–	Cc1ccc2c(CC(=O)O)cn(-c3ccc(C(F)(F)F)cc3CSC(C)(C)C)c2n1
–	580	–	–	Cc1ccc2c(CC(=O)O)cn(-c3ccccc3Cn3ccnc3)c2n1
–	1000	–	–	Cc1ccc(-n2cc(CC(=O)O)c3ccc(C)nc32)c(Cc2ccnn2Cc2ccccc2)c1
13	1	–	–	Cc1ccc2c(CC(=O)O)cn(-c3ccc(C(F)(F)F)cc3Cc3c(C)noc3C3CC3)c2n1
1.5	27	–	–	COc1ccc(CC(=O)O)cc1-c1ccc(C(F)(F)F)cc1Cn1c(C)nnc1C1CC1
–	7	–	42	Cc1noc(C2CC2)c1Cc1cc(Cl)ccc1-n1cc(CC(=O)O)c2ccc(Cc3ccccc3)nc21
12	5	–	–	Cc1ccn2c(CC(=O)O)cc(-c3ccc(C(F)(F)F)cc3Cc3c(C)noc3C3CC3)c2n1
–	2600	–	–	O=C(O)Cn1cc(-c2ccc(C(F)(F)F)cc2Cc2ocnc2C2CC2)c2cc(F)ccc21
–	–	Not Active	–	Cc1ccc2c(CC(=O)O)cn(-c3ccc(Cl)cc3Cc3cc(C)nn3C)c2n1
–	–	Not Active	–	COc1ccc(CC(=O)O)cc1-c1ccc(C(F)(F)F)cc1Cn1ccccc1=O
26	11	–	–	Cc1ccc2c(CC(=O)O)cn(-c3ccc(Cl)cc3Cn3c(C)nnc3Cc3ccccc3)c2n1
0.6	51	–	–	CCCc1nc2ccccc2n1Cc1ccccc1-n1cc(CC(=O)O)c2ccc(C)nc21
–	250	–	–	Cc1ccc(-n2cc(CC(=O)O)c3ccc(C)nc32)c(Cn2ccnc2C)c1
–	170	–	–	Cc1ccc2c(CC(=O)O)cn(-c3ccc(Cl)cc3Cc3cncnc3C(C)C)c2n1
–	1400	–	–	Cc1ccc2c(CC(=O)O)cn(-c3ccc(Cl)cc3Cc3cncnc3)c2n1
20	7	–	–	Cc1ccc(-n2cc(CC(=O)O)c3ccc(Cc4ccccc4)nc32)c(Cn2c(C)nnc2C)c1
10	20	–	–	Cc1noc(C)c1Cc1cc(C(F)(F)F)ccc1-c1cn(CC(=O)O)c2ccc(F)cc12
16	9	–	–	Cc1nnc(C2CC2)n1Cc1cc(C(F)(F)F)ccc1-n1cc(CC(=O)O)c2ccc(F)cc21
5	5	–	–	Cc1ccc2c(n1)c(-c1ccc(C(F)(F)F)cc1Cc1c(C)noc1C)cn2CC(=O)O
1.2	30	–	–	Cc1ccc(-n2cc(CC(=O)O)c3ccc(C)nc32)c(Cn2ccnc2-c2ccccc2)c1
